Measured values reported in patent publication US20160250277A1, “[…] OPIOID RECEPTOR AGONISTS FOR PREVENTING, INHIBITING OR TREATING NAUSEA AND VOMITING” (CARA THERAPEUTICS, INC., priority 2013, published 2016).

Legend:
[1] = tested on: acute and chronic visceral, inflammatory and neuropathic pain; assay: standard preclinical pain models; type: in vivo
Method: (§1) The analgesic effect of CR845 was recordable within 15 minutes post-administration and lasted for up to 18 hours following single-dose administration.

[2] = tested on: patients following bunionectomy surgery; details: human, in vivo
[3] = tested on: pro-inflammatory mediators; assay: production and release of pro-inflammatory mediators; details: preclinical
Method: as §1

[4] = tested on: patients undergoing laparoscopic hysterectomy; details: human, in vivo
[5] = tested on: “Chung Model” of neuropathic pain; assay: “Chung Model” of neuropathic pain (paw withdrawal threshold); type: in vivo, rats; details: for blockade of CR845 effect by kappa antagonist into injured paw: intraplantar 0.2 mg, 15 min prior to CR845 1 mg/kg, rats
Method: FIG. 1: Efficacy of CR845 in “Chung Model” of neuropathic pain is blocked with Peripheral (Intrapaw) administration of a kappa antagonist (norBNI) in rats. *** denotes p<0.001 compared to vehicle-treated controls (two-way ANOVA). Vehicle or Nor-BNI was administered intraplantarly (0.2 mg) 15 min prior to CR845. Injection (1 mg/kg). N=6 male rats/group, mean±SEM.
The peripheral mechanism of action of CR845 is supported preclinically by both biochemical in vitro assays and in vivo functional pharmacological studies. […] Moreover, in standard preclinical pain models, such as the “Chung Model” of neuropathic pain, the analgesic action of CR845 was blocked with kappa opioid receptor antagonists administered directly to the local site of injury, indicating a peripheral site of action for CR845 (FIG. 1). In the “Chung Model”, neuropathic pain is induced experimentally by ligating spinal nerves mediating sensation for a hind limb. […] Sets of different thickness filaments are used to test sensitivity, each of which is designed to produce a given force (in grams) upon bending after contact. By testing with these filaments, the minimum force to evoke a withdrawal response defines the paw withdrawal threshold. The nerve injury produces a marked reduction in paw withdrawal thresholds (increased sensitivity to force) in response to probing with the filaments.

[6] = tested on: human subjects; details: in vivo
[7] = pharmacokinetic studies, drug in extracted brain tissue; type: in vivo; details: animals, analgesic and supra-analgesic doses

CC(C)C[C@@H](NC(=O)[C@@H](Cc1ccccc1)NC(=O)[C@H](N)Cc1ccccc1)C(=O)N[C@H](CCCCN)C(=O)N1CCC(N)(C(=O)O)CC1 [CR845, D-Phe-D-Phe-D-Leu-D-Lys-[ω(4-aminopiperidine-4-carboxylic acid)]-OH]
duration of analgesic effect ([1]; following single-dose administration): up to 18 hours
onset of analgesic effect post-administration ([1]; preclinical pain models): ≤ 15 min
attenuation of pain in preclinical pain models ([1]; standard preclinical pain models): successfully attenuated acute and chronic visceral, inflammatory and neuropathic pain in a dose-dependent manner
SPID0-36 vs placebo [2]: statistically significant
SPID0-48 vs placebo [2]: statistically significant
SPID scores 0-24, 0-36, 0-48 vs placebo [2]: Numerical improvements in SPID scores
acute psychiatric side effects [2]: no evidence of acute psychiatric side effects
cases of somnolence reported [2]: seven
mean PID from baseline at each time interval across 48 hours vs placebo [2]: numerically superior
mean plasma sodium concentration vs normal range [2]: not outside the normal physiological range
most frequent TEAEs (greater than 10%) [2]: transient facial tingling and somnolence
pain intensity differences 0-12 hour time interval vs placebo [2]: Statistically significant reductions in pain intensity differences
pain intensity differences 0-36 hour time interval vs placebo [2]: Statistically significant reductions in pain intensity differences
reduction of incidence of nausea vs placebo [2]: 60%
reduction of incidence of vomiting vs placebo [2]: 80%
rise of mean plasma sodium concentration from baseline [2]: approximately 3%
SPID0-24 vs placebo ([2]; iv, 0.005 mg/kg): statistically significant reduction in pain intensity compared to placebo
production and release of pro-inflammatory mediators [3]: decreased the production and release of pro-inflammatory mediators
PID for 0-4, 0-8 and 0-16 hour time intervals vs Placebo/Placebo [4]: statistically significant improvements
Responders in global evaluation of study medication vs placebo [4]: higher percentage of patients
SPID over 0-8, 0-12 and 0-16 time periods vs Placebo/Placebo [4]: reduced pain intensity compared to the Placebo/Placebo group in a statistically significant manner
greater reduction in pain intensity at 24 hours vs Placebo/Placebo [4]: approximately 60%
improvement in mean SPID values 0-4 hour vs Placebo/Placebo [4]: 3.5 fold
mean TOTPAR0-2 (pain relief within first 2 hours) vs Placebo/Placebo [4]: statistically superior pain relief
mean TOTPAR 0-12 hour interval vs Placebo/Placebo [4]: reached statistical significance
mean TOTPAR scores across all intervals vs Placebo/Placebo [4]: numerically superior
pain intensity for 0-8 and 0-16 hour time intervals vs Placebo/Placebo [4]: statistically significant decreases in pain intensity
patients who experienced nausea [4]: 26.1%
patients who experienced vomiting [4]: 1.7%
pruritus reported vs placebo [4]: less pruritus
reduction of incidence of nausea vs placebo [4]: approximately 50%
reduction of incidence of vomiting vs placebo [4]: ~80%
reported pain relief (TOTPAR) for 0-4, 2-4 and 0-8 hour time periods [4]: statistically significant improvements in reported pain relief
mean PID from baseline at each time interval vs Placebo/Placebo ([4]; iv): numerically superior
blood sodium increase (hypernatremia), share of total patients ([4]; iv, 0.04 mg/kg): 14%
paw withdrawal threshold (neuropathic pain) ([5]; I.V. CR845 1 mg/kg, male rats): reduces this neuropathic pain as demonstrated by a subsequent increase in the withdrawal threshold
drug-related respiratory depression [6]: no evidence of drug-related respiratory depression
concentration of drug in extracted brain tissue [7]: no measurable concentrations of drug in extracted brain tissue

Oc1ccc2c3c1O[C@H]1c4[nH]c5c(c4C[C@@]4(O)[C@@H](C2)N(CC2CC2)CC[C@]314)C[C@@]1(O)[C@H]2Cc3ccc(O)c4c3[C@@]1(CCN2CC1CC1)[C@H]5O4 [nor-BNI, nor-binaltorphamine]
blockade of CR845 effect by kappa antagonist into injured paw [5]: significantly reduces the effect of CR845
blockade of CR845 effect by kappa antagonist into injured paw ([5]; listed as norBNI): blocked
